From PMC5944028, “Nonclinical and clinical pharmacological characterization of the potent and selective cathepsin K inhibitor MIV-711” (Journal of Translational Medicine, 2018)

What was measured:
human cathepsin S = target: T1, human cathepsin S (Homo sapiens, UniProt P25774); test: Enzyme assay, human cathepsin S; type: biochemical; conditions: geometric mean
T1 construct: made in house
Excerpt: Recombinant cathepsin K enzymes from all species were expressed in E. coli, purified and activated. Human cathepsin F and cathepsin S were expressed in Baculovirus, purified and activated. Purified human cathepsins B and H (Athens Research Technology), cathepsin L (Calbiochem), and cathepsin V (R & D Systems) were purchased.
H-D-Ala_Leu-Lys-AMC was used as the substrate in assays of cathepsin K from non-rodent species (human, dog, rabbit and guinea pig), and Z-Leu-Arg-AMC was used as the substrate in assays of cathepsin K from rodent species (mouse and rat). […]
Assays were carried out in white polystyrene 96-well plates in a final volume of 100 µL. […] Plates were read in a Fluoroskan Ascent (Thermo Labsystems, Helsinki, Finland) in kinetic mode, with excitation and emission filters of 390 and 460 nm, respectively. Rates were determined by linear regression of the fluorescence/time data in Excel. Rates were fitted by non-linear regression to either the competitive inhibition equation, with the substrate concentration fixed at the value in the assay and the KM fixed to the value previously determined, or the IC50 equation using GraphPad Prism (GraphPad, version 6, San Diego, USA) to obtain Ki or IC50 values, respectively.

[1] = test system: > 70 different ion channels, receptors, transporters and CYP enzymes; test: PanLabs broad panel; conditions: 10 µmol/L
Procedure: MIV-711 was analyzed against > 70 different ion channels, receptors, transporters and cytochrome P450 (CYP) enzymes at a concentration of 10 µmol/L at PanLabs (Taipei, Taiwan).

[2] = Human plasma pharmacokinetics, single ascending dose study; type: in vivo, human healthy subjects; conditions: for AUC0–t / AUCinf / Cmax / Cmax/dose / t½: geometric mean (CV%); for tmax: median (min–max)
Excerpt: Twenty-seven healthy male and female subjects (18 male and 9 female) of any ethnic origin (24 White, 1 Asian, 1 Black, 1 Black/Caribbean White), aged between 19 and 64 years, and with a body mass index (BMI) between 18.0 and 32.0 kg/m^2, were selected for this study. Inclusion criteria for enrollment followed the standard practice for first-in-man studies.
This was a randomized, double-blind, placebo-controlled, sequential, single-ascending dose study conducted at a single site with the objective of evaluating the safety, tolerability, pharmacokinetics (PK) and pharmacodynamics of MIV-711. Subjects were randomized into 3 groups using a computer-generated pseudo-random permutation procedure. Each group consisted of 9 subjects with at least 3 subjects of each gender per group and subjects participated in 1–2 treatment periods. There was a minimum of 10 days between dose escalations and a minimum of 20 days between dosing occasions for individual subjects. For each subsequent dosing occasion, the decision to escalate the dose to the next level was taken after a thorough review of the safety, tolerability and PK data. In each treatment period, 7 subjects received MIV-711 and 2 received placebo (comprising of 1 subject of each gender). Dosing occurred on the morning of Day 1 following an overnight fast and subjects were kept in the fasted state until approximately 4.5 h after dosing. MIV-711 was given as a combination of 10 or 40 mg hard gelatin capsules, while placebo was given in similar capsules of identical appearance.
Blood samples were collected at pre-dose, 0.5, 1, 1.5, 2, 3, 4, 6, 8, 12, 16, 24, 36 and 48 h post-dose and processed into plasma for the measurement of concentrations of MIV-711. The PK analysis was conducted using WinNonlin Enterprise Version 5.2 (Pharsight Corporation, Mountain View, CA, USA).
The quantification of MIV-711 in monkey plasma was performed by taking 10–50 µL of plasma and mixing with 3 volumes of acetonitrile (10 s, Vibrofix). The sample was centrifuged (10 min, 20,000×g, 7 °C) and 5 µL of the supernatant was injected onto the liquid chromatography with tandem mass spectrometric detection (LC–MS/MS) system. The lowest concentration of the standard curves and the lower limit of quantification (LLOQ) was 1 nmol/L of MIV-711. The human plasma samples were prepared by protein precipitation for sample extraction followed by LC–MS/MS. The lowest concentration of the standard curves and the LLOQ was 4 nmol/L of MIV-711 using 25 µL of plasma.

T1 sequence (P25774 115-331): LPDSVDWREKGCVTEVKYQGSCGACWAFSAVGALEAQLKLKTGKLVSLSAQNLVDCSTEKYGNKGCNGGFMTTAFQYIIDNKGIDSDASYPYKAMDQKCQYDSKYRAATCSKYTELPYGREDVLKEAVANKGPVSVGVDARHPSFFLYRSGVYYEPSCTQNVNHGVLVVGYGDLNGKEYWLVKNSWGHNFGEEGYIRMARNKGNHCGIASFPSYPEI

SMILES: C#C[C@@H]1CN(C(=O)[C@H](CC(C)C)NC(=O)c2ccc(-c3nc(N4CCN(C)CC4)sc3F)cc2)[C@@H]2C(=O)CO[C@H]12 [MIV-711]
- Ki (human cathepsin S): 15.7 µM
- Responses (more than 50% inhibition) in broad panel [1]: No significant responses
- AUC0–t ([2]; 20 mg single oral dose): 0.128 (36) µmol/L × h
- AUCinf ([2]; 20 mg single oral dose): 0.158 (32) µmol/L × h
- Cmax ([2]; 20 mg single oral dose): 0.033 µM
- Cmax/dose ([2]; 20 mg single oral dose): 0.12 (26)
- t½ ([2]; 20 mg single oral dose): 3.4 (13) h
- tmax ([2]; 20 mg single oral dose): 1.0 (0.50–2.0) h
- AUC0–24h ([2]; 100 mg): 1100 nM·h
- AUC0–t ([2]; 100 mg single oral dose): 1.13 (38) µmol/L × h
- AUCinf ([2]; 100 mg single oral dose): 1.17 (37) µmol/L × h
- Cmax ([2]; 100 mg single oral dose): 0.293 µM
- Cmax/dose ([2]; 100 mg single oral dose): 0.21 (23)
- t½ ([2]; 100 mg single oral dose): 3.7 (15) h
- tmax ([2]; 100 mg single oral dose): 1.0 (1.0–2.2) h
- Plasma levels at 24 h post-dose ([2]; 100 mg, mostly below LLOQ): < 0.004 µM
- AUC0–t ([2]; 200 mg single oral dose): 2.45 (36) µmol/L × h
- AUCinf ([2]; 200 mg single oral dose): 2.51 (35) µmol/L × h
- Cmax ([2]; 200 mg single oral dose): 0.756 µM
- Cmax/dose ([2]; 200 mg single oral dose): 0.27 (36)
- t½ ([2]; 200 mg single oral dose): 5.0 (16) h
- tmax ([2]; 200 mg single oral dose): 1.0 (0.50–1.0) h
- AUC0–t ([2]; 400 mg single oral dose): 4.62 (33) µmol/L × h
- AUCinf ([2]; 400 mg single oral dose): 4.75 (32) µmol/L × h
- Cmax ([2]; 400 mg single oral dose): 1.18 µM
- Cmax/dose ([2]; 400 mg single oral dose): 0.23 (37)
- t½ ([2]; 400 mg single oral dose): 6.5 (44) h
- tmax ([2]; 400 mg single oral dose): 1.0 (1.0–1.5) h
- AUC0–t ([2]; 600 mg single oral dose): 6.75 (30) µmol/L × h
- AUCinf ([2]; 600 mg single oral dose): 6.89 (30) µmol/L × h
- Cmax ([2]; 600 mg single oral dose): 1.39 µM
- Cmax/dose ([2]; 600 mg single oral dose): 0.17 (38)
- t½ ([2]; 600 mg single oral dose): 8.3 (34) h
- tmax ([2]; 600 mg single oral dose): 1.0 (1.0–3.0) h
- Excreted renally unchanged ([2]; data not shown): less than 1%
- mean terminal t1/2 ([2]; over the 20–600 mg dose range): 3.4 to 8.3 h
- median tmax ([2]; single oral doses): 1 h
